This passage reports TGI and GI50 results from PubChem BioAssay (NCI).

Several values for one entry are separate records, joined by “and”; a condition that tells them apart may be missing. Identical values can stand only once.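 All cell lines were grown in 96-well plates and treated with compound for 48 hours. Here, GI50 denotes the concentration required for 50% inhibition of growth. TGI marks complete inhibition of growth.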

Among the test systems are HCT-15 colon; NCI-H522 lung; HL-60(TB) leukemia; SK-MEL-5 melanoma; SF-268 CNS; SK-MEL-28 melanoma; UO-31 renal; COLO 205 colon; T-47D breast; IGROV1 ovarian.
Assay in all cases: NCI-60 cell line screen, 48 h

As for `COC1=CC23CCCN2CCc2cc4c(cc2C3C1O)OCO4` (stereo unspecified), the TGI in the assay with HCT-15 colon was > 100 µM; in the assay with NCI-H522 lung, > 100 µM; with HL-60(TB) leukemia, 83.8 µM; in the assay with SK-MEL-5 melanoma it was 54 µM; in the assay on SF-268 CNS, > 100 µM; in the assay on SK-MEL-28 melanoma, > 100 µM. Also, the TGI in the assay with UO-31 renal is > 100 µM; with COLO 205 colon, 64.2 µM; with T-47D breast, > 100 µM; in the assay on IGROV1 ovarian, > 100 µM.

As for `O=C(O)CCC/C=C\C[C@H]1C=CC(=O)/C1=C/C[C@@H](O)CCc1cccc(C(F)(F)F)c1`, the GI50 in the assay on HCT-15 colon was 1.79 µM; in the assay on NCI-H522 lung it was 1.35 µM; in the assay on HL-60(TB) leukemia, 2.37 µM; in the assay with SK-MEL-5 melanoma it was 1.71 µM; with SF-268 CNS it was 3.22 µM; in the assay with SK-MEL-28 melanoma, 1.52 µM. The GI50 in the assay with UO-31 renal was 1.68 µM; in the assay with COLO 205 colon, 2.26 µM; in the assay on T-47D breast, 2.82 µM; with IGROV1 ovarian, 3.41 µM. The TGI in the assay with HCT-15 colon turned out to be 4.88 µM; with NCI-H522 lung it was 3.8 µM; in the assay on HL-60(TB) leukemia, 6.9 µM; in the assay with SK-MEL-5 melanoma, 3.14 µM; with SF-268 CNS, 16.5 µM; with SK-MEL-28 melanoma, 4.4 µM. Also, the TGI in the assay with UO-31 renal came out at 3.16 µM; in the assay with COLO 205 colon, 5.49 µM; with T-47D breast, 17.5 µM; in the assay on IGROV1 ovarian it was 13.6 µM.

As to `C[C@@H](CN1CC(=O)NC(=O)C1)N1CC(=O)NC(=O)C1`, the TGI in the assay with HCT-15 colon was determined as 823 µM; in the assay on NCI-H522 lung, 518 µM; in the assay with HL-60(TB) leukemia, 1300 µM; in the assay on SK-MEL-5 melanoma, 543 µM; in the assay on SF-268 CNS, 1160 µM; with SK-MEL-28 melanoma, 1750 µM. In addition, the TGI is 1060 µM with UO-31 renal, 296 µM in the assay with COLO 205 colon, 1020 µM with T-47D breast and 1440 µM in the assay on IGROV1 ovarian.

Take `CN1C(=O)[C@@H](NC(=O)[C@H](CCC(F)(F)F)[C@H](CCC(F)(F)F)C(N)=O)N=C(c2ccccc2)c2ccccc21`: the GI50 in the assay with HCT-15 colon was 89.5 µM; in the assay with NCI-H522 lung, 85.2 µM; in the assay with HL-60(TB) leukemia, 62.6 µM; in the assay with SK-MEL-5 melanoma, 36.1 µM; with SF-268 CNS it was > 100 µM; in the assay on SK-MEL-28 melanoma it was 59.7 µM. Further, the GI50 in the assay with UO-31 renal is 49 µM; with COLO 205 colon it was 87.5 µM; in the assay on T-47D breast it was 46.2 µM; with IGROV1 ovarian, > 100 µM. The TGI in the assay on HCT-15 colon, in the assay with NCI-H522 lung, in the assay with HL-60(TB) leukemia, in the assay on SK-MEL-5 melanoma, in the assay on SF-268 CNS and with SK-MEL-28 melanoma was > 100 µM in each case. The TGI in the assay on UO-31 renal, in the assay with COLO 205 colon, in the assay with T-47D breast and with IGROV1 ovarian was > 100 µM in each case.

For `CN(C)c1ncc(-c2ccc(C(F)(F)F)cc2)c(NC2CCCCCC2)n1`, the GI50 with HCT-15 colon was 17.1 µM; in the assay on NCI-H522 lung, 11.2 µM; in the assay on HL-60(TB) leukemia, 15 µM; in the assay on SK-MEL-5 melanoma, 14 µM; in the assay with SF-268 CNS it was 22.7 µM; with SK-MEL-28 melanoma it was 19.6 µM. Besides, the GI50 with UO-31 renal was 12.6 µM; in the assay on COLO 205 colon it was 14.4 µM; in the assay with T-47D breast it was 25 µM; with IGROV1 ovarian it was 32.5 µM. Further, the TGI was 48.8 µM in the assay on HCT-15 colon; 30.2 µM in the assay on NCI-H522 lung; 34 µM in the assay on HL-60(TB) leukemia; 28.3 µM in the assay with SK-MEL-5 melanoma; 96.1 µM in the assay on SF-268 CNS; 60.3 µM with SK-MEL-28 melanoma. Also, the TGI with UO-31 renal is 35.2 µM; with COLO 205 colon it was 30.6 µM; with T-47D breast it was > 100 µM; in the assay on IGROV1 ovarian it was > 100 µM.

In the case of `O=C(O)c1cc2ccccc2oc1=O`, the TGI in the assay on HCT-15 colon, in the assay with NCI-H522 lung, in the assay with HL-60(TB) leukemia, with SK-MEL-5 melanoma, in the assay with SF-268 CNS and in the assay on SK-MEL-28 melanoma was > 100 µM each time. The TGI in the assay with UO-31 renal, in the assay on COLO 205 colon, with T-47D breast and in the assay on IGROV1 ovarian was > 100 µM throughout. The GI50 in the assay with T-47D breast was > 100 µM and 33.6 µM.

On to `CS(=O)(=O)Nc1cccc(-c2cc(-c3ccccc3Cl)c(C#N)c(N)n2)c1`, for which the GI50 was 0.402 µM with HCT-15 colon; 0.294 µM with NCI-H522 lung; 0.361 µM with HL-60(TB) leukemia; 0.448 µM in the assay with SK-MEL-5 melanoma; 1.05 µM in the assay with SF-268 CNS; 1.22 µM in the assay on SK-MEL-28 melanoma. Besides, the GI50 in the assay on UO-31 renal is 0.984 µM; in the assay on COLO 205 colon, 0.472 µM; in the assay on T-47D breast, 0.695 µM; with IGROV1 ovarian, 0.769 µM. The TGI in the assay with HCT-15 colon was 15.8 µM; in the assay on NCI-H522 lung, 3.89 µM; with HL-60(TB) leukemia, 13.4 µM; in the assay with SK-MEL-5 melanoma it was 13.6 µM; in the assay with SF-268 CNS, 19.1 µM; with SK-MEL-28 melanoma it was 19.9 µM. The TGI was 17.4 µM with UO-31 renal, 4.88 µM with COLO 205 colon, 14.6 µM in the assay with T-47D breast and 22.6 µM in the assay with IGROV1 ovarian.

In the case of `Cc1nc(CN2CCCCC2)c(O)c(=O)[nH]1`, the TGI with HCT-15 colon, in the assay with NCI-H522 lung, in the assay on HL-60(TB) leukemia, in the assay with SK-MEL-5 melanoma, in the assay with SF-268 CNS and in the assay with SK-MEL-28 melanoma was > 100 µM in each case. The TGI in the assay on UO-31 renal, in the assay with COLO 205 colon, in the assay on T-47D breast and with IGROV1 ovarian was > 100 µM each time.

`N#CC(C#N)N=Nc1ccc(Br)cc1`: the GI50 with HCT-15 colon is 3.22 µM; in the assay on NCI-H522 lung it was 0.543 µM; in the assay with HL-60(TB) leukemia, 1.7 µM; in the assay on SK-MEL-5 melanoma, 5.13 µM; with SF-268 CNS it was 13.1 µM; in the assay with SK-MEL-28 melanoma, 3.41 µM. In addition, the GI50 in the assay with UO-31 renal was 1.26 µM; in the assay with COLO 205 colon, 1.43 µM; in the assay on T-47D breast, 0.839 µM; in the assay with IGROV1 ovarian, 3.68 µM. Moreover, the TGI was 15.9 µM in the assay with HCT-15 colon; 3.41 µM with NCI-H522 lung; 4.38 µM in the assay with HL-60(TB) leukemia; 34.1 µM in the assay on SK-MEL-5 melanoma; > 100 µM in the assay with SF-268 CNS; 26.5 µM with SK-MEL-28 melanoma. For the same compound, the TGI is 7.05 µM in the assay on UO-31 renal, 3.25 µM in the assay on COLO 205 colon, 6.75 µM in the assay on T-47D breast and > 73.6 µM with IGROV1 ovarian.
